Results on eleven compounds are retold here after patent publication US20240165244A1 (Prelude Therapeutics Incorporated, priority 2022, published 2024).

The term DC50 denotes the midpoint of the concentration-degradation curve. Lower therefore signals a more potent degrader. The Dmax is the largest share of the target that was removed.

In assay [1] the target is T1, SMARCA2 (Homo sapiens, UniProt P51531).
T1 construct: SMARCA2-HiBiT knock-in Hela monoclonal cell (CS302366); host or cells: HeLa monoclonal cells with heterozygous HiBiT knock-in at the endogenous SMARCA2 locus
T1 sequence (P51531 whole entry): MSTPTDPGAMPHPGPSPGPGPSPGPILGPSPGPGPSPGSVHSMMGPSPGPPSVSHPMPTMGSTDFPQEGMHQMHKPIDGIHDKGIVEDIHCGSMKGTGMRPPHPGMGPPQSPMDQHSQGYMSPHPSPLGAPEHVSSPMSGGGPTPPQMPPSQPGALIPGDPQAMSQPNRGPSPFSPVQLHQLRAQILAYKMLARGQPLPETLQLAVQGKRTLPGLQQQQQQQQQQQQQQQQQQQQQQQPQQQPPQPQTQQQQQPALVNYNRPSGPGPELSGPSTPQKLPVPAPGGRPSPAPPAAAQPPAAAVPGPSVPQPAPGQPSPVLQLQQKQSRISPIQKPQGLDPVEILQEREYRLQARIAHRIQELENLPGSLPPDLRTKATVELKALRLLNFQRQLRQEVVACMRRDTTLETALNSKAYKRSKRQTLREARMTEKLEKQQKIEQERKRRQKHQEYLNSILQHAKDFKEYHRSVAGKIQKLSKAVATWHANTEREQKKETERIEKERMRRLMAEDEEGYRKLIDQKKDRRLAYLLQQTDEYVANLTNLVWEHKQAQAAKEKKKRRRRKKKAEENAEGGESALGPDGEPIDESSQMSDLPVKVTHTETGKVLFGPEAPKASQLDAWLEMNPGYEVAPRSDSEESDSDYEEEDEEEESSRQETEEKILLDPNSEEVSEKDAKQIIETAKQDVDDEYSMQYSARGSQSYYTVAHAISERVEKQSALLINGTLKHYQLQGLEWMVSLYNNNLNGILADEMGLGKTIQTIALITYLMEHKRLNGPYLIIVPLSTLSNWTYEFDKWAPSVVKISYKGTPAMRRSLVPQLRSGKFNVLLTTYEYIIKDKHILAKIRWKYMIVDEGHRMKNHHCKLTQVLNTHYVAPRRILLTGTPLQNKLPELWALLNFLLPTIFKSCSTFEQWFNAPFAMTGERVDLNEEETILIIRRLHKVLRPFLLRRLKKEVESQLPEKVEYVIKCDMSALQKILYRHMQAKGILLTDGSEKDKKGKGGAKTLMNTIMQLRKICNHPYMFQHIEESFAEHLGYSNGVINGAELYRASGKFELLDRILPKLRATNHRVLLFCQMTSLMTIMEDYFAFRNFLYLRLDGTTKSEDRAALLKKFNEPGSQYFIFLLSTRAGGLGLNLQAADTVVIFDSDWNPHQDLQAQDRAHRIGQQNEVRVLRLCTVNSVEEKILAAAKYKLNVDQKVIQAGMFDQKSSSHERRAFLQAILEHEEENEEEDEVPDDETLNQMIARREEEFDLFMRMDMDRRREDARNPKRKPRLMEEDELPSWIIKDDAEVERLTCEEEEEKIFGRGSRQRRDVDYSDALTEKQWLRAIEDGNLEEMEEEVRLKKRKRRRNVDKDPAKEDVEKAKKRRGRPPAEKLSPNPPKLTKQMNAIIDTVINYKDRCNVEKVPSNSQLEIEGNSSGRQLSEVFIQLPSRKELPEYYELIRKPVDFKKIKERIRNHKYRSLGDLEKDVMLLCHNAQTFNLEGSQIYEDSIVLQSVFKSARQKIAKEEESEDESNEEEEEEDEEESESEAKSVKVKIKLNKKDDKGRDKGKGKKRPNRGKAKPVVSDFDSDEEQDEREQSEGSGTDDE
Nature of the assay: SMARCA2 HiBiT degradation assay in HeLa cells. It counts as cell-based. As to conditions: 18 hours, highest concentration 10 μM. On the procedure: (§1) SMARCA2 HiBiT and SMARCA4 HiBiT Degradation Assay
HiBiT peptide knock-in of SMARCA2 in LgBiT expressing HEK293T cells was performed by CRISPR-mediated tagging system as described Promega. The homozygous HiBiT knock-in on c-terminus SMARCA2 was confirmed by sanger sequence. SMARCA2-HiBiT knock-in Hela monoclonal cell (CS302366) and SMARCA4-HiBiT knock-in Hela monoclonal cell (CS3023226) were purchased from Promega. The heterozygous HiBiT-knock-in was confirmed by sanger sequence in both SMARCA2-HiBiT and SMARCA4-HiBiT monoclonal cells.
(§2) SMARCA2 HiBiT and SMARCA4 HiBiT Degradation Assay in HeLa Cells
Dispense 10 ul aliquot of prepared Hela-SMARCA2-HiBiT or Hela-SMARCA4-HiBiT cells (1:1 ratio of cells:Trypan Blue (#1450013, Bio-Rad)) onto cell counting slide (#145-0011, Bio-Rad) and obtain cell density and cell viability using cell counter (TC20, Bio-Rad). Remove appropriate volume of resuspended cells from culture flask to accommodate 2500 cells/well @ 20 μL/well. Transfer Hela-HiBiT cells to 50 mL conical (#430290, Corning). Spin down at 1000 rpm for 5 min using tabletop centrifuge (SPINCHRON 15, Beckman). Discard supernatant and resuspend cell pellet in modified EMEM (#30-2003, ATCC) cell culture media containing 10% FBS (F2422-500ML, Sigma), and 1× Penicillin/Streptomycin ([…]) (30-002-CI, Corning) to a cell density of 125,000 cells/mL. Dispense 20 μLof resuspended Hela-HiBit cells per well in 384-well TC treated plate (#12-565-343, Thermo Scientific) using standard cassette (#50950372, Thermo Scientific) on Multidrop Combi (#5840310, Thermo Scientific) inside laminar flow cabinet.
Compounds were dissolved in DMSO to make 10 mM stock and 3-fold series dilutions were further conducted keeping the highest concentration 10 μM. Dispense test compounds onto plates using digital liquid dispenser (D300E, Tecan). Incubate plates in humidified tissue culture incubator @37° C. for 18 hours. Add 20 μL of prepared Nano-Glo® HiBiT Lytic detection buffer (N3050, Promega) to each well of 384-well plate using small tube cassette (#24073295, Thermo Scientific) on Multidrop Combi, incubate @ RT for 30-60 min. Read plates on microplate reader (Envision 2105, PerkinElmer) using 384 well Ultra-Sensitive luminescence mode. Raw data files and compound information reports are swept into centralized data lake and deconvoluted using automated scripts designed by TetraScience, Inc. Data analysis, curve-fitting and reporting done in Dotmatics Informatics Suite using Screening Ultra module.
On the technique in general: The HiBiT peptide binds its large partner to form an active luciferase.

The target in assay [2] is T2, SMARCA4 (Homo sapiens, UniProt P51532).
T2 construct: SMARCA4-HiBiT knock-in Hela monoclonal cell (CS3023226); host or cells: HeLa monoclonal cells with heterozygous HiBiT knock-in at the endogenous SMARCA4 locus
T2 sequence (P51532 whole entry): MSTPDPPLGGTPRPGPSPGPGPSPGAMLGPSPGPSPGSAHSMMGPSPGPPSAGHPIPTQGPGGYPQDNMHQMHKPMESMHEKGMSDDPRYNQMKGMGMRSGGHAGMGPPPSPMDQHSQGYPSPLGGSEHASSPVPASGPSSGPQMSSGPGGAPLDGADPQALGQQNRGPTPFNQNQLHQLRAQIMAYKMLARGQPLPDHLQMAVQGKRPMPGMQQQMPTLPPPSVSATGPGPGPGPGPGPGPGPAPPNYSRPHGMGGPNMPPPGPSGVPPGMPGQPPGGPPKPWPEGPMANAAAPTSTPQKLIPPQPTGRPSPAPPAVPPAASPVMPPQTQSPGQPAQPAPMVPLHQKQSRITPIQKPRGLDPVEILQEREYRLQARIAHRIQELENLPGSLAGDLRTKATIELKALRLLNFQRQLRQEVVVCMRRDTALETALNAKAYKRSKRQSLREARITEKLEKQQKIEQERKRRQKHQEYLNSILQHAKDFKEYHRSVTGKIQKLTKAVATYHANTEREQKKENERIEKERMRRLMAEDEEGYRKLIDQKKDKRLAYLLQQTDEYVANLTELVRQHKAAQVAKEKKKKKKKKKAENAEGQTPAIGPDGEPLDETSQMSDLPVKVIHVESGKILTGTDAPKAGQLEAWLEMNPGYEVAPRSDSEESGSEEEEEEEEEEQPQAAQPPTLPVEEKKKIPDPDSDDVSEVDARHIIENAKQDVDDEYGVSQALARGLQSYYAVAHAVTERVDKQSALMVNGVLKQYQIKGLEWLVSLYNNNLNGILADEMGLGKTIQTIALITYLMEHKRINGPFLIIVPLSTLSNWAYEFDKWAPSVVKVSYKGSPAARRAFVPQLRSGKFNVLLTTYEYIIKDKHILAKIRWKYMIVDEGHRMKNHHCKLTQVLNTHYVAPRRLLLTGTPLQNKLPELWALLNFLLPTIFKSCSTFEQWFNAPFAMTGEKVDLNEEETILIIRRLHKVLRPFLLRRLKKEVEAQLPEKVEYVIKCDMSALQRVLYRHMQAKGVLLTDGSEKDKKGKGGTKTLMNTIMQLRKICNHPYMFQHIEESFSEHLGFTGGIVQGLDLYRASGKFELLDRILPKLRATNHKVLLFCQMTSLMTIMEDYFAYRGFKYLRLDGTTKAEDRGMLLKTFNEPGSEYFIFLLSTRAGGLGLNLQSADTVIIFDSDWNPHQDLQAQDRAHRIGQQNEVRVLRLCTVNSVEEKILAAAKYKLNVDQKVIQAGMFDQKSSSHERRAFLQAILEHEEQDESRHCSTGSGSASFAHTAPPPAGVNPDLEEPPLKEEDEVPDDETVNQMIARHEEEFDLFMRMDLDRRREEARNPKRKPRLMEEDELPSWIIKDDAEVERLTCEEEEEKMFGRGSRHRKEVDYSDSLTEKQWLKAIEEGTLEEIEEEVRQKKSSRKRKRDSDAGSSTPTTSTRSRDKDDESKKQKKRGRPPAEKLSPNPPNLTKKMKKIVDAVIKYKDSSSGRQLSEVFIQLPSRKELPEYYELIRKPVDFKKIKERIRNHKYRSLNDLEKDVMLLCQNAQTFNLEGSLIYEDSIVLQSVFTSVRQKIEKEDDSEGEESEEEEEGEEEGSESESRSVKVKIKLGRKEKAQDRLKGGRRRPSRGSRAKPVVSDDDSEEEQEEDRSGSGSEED
Description: SMARCA4 HiBiT degradation assay in HeLa cells. The assay is classed as cell-based. The settings on record: 18 hours, highest concentration 10 μM. The protocol:
as §1
HiBiT peptide knock-in of SMARCA2 in LgBiT expressing HEK293T cells was performed by CRISPR-mediated tagging system as described Promega. […] SMARCA2-HiBiT knock-in Hela monoclonal cell (CS302366) and SMARCA4-HiBiT knock-in Hela monoclonal cell (CS3023226) were purchased from Promega.
as §2
Remove appropriate volume of resuspended cells from culture flask to accommodate 2500 cells/well @ 20 μL/well. […] Spin down at 1000 rpm for 5 min using tabletop centrifuge (SPINCHRON 15, Beckman).
Dispense test compounds onto plates using digital liquid dispenser (D300E, Tecan). Incubate plates in humidified tissue culture incubator @37° C. for 18 hours. […] Raw data files and compound information reports are swept into centralized data lake and deconvoluted using automated scripts designed by TetraScience, Inc. Data analysis, curve-fitting and reporting done in Dotmatics Informatics Suite using Screening Ultra module.

Each structure is given as a SMILES string. Some results are limits rather than exact numbers.

In the case of `CC[C@]12CNc3nnc(-c4cccc(C)c4O)cc3N1C[C@H](Oc1cc(C)c(CN3CCC(c4ccc5c(c4)C(=O)N([C@H]4CCC(=O)NC4=O)C5)CC3)cn1)C2` [Example 98, (S)-3-(6-(1-((6-(((6aS,8R)-6a-ethyl-2-(2-hydroxy-3-methylphenyl)-5,6,6a, 7,8,9-hexahydropyrrolo[1′,2′:4,5]pyrazino[2,3-c]pyridazin-8-yl)oxy)-4-methylpyridin-3-yl)methyl)piperidin-4-yl)-1-oxoisoindolin-2-yl)piperidine-2,6-dione], in assay [1], the half-maximal degradation concentration (DC50) is below 100 nM and the maximal degradation (Dmax) was above 75%. In assay [2], this compound registered a DC50 below 100 nM and a Dmax above 75%.
In assay [1], `CC[C@@]12CNc3nnc(-c4cccc(F)c4O)cc3N1C[C@H](Oc1ncc(CN3CCC(c4ccc5c(c4)C(=O)N([C@H]4CCC(=O)NC4=O)C5)CC3)c(C)n1)C2` [Example 105, (S)-3-(6-(1-((2-(((6aR,8R)-6a-ethyl-2-(3-fluoro-2-hydroxyphenyl)-5,6,6a, 7,8,9-hexahydropyrrolo[1′,2′:4,5]pyrazino[2,3-c]pyridazin-8-yl)oxy)-4-methylpyrimidin-5-yl)methyl)piperidin-4-yl)-1-oxoisoindolin-2-yl)piperidine-2,6-dione] displayed a 50% degradation concentration (DC50) below 100 nM and a Dmax above 75%. Moreover, in assay [2], the DC50 was in the range of 100 to 1000 nM and the maximal degradation (Dmax) was below 50%.
In assay [1], `Cc1nc(O[C@@H]2C[C@@H]3CNc4nnc(-c5cc(F)cc(F)c5O)cc4N3C2)ccc1CN1CCN(c2ccc3c(c2)C(=O)N([C@H]2CCC(=O)NC2=O)C3)CC1` [Example 30, (S)-3-(6-(4-((6-(((6aR,8R)-2-(3,5-difluoro-2-hydroxyphenyl)-5,6,6a,7,8,9-hexahydropyrrolo[1′,2′:4,5]pyrazino[2,3-c]pyridazin-8-yl)oxy)-2-methylpyridin-3-yl)methyl)piperazin-1-yl)-1-oxoisoindolin-2-yl)piperidine-2,6-dione] gave a DC50 below 100 nM and a maximal degradation (Dmax) above 75%. For the same compound, in assay [2], the half-maximal degradation concentration (DC50) was below 100 nM and the Dmax is above 75%.
As to `CC(C)c1cc(O[C@@H]2C[C@@H]3CNc4nnc(-c5cc(F)cc(F)c5O)cc4N3C2)ccc1CN1CCN(c2ccc3c(c2)C(=O)N(C2CCC(=O)NC2=O)C3)CC1` (stereo partly drawn) [Example 16, 3-(6-(4-(4-(((6aR,8R)-2-(3,5-difluoro-2-hydroxyphenyl)-5,6,6a,7,8,9-hexahydropyrrolo[1′,2′:4,5]pyrazino[2,3-c]pyridazin-8-yl)oxy)-2-isopropylbenzyl)piperazin-1-yl)-1-oxoisoindolin-2-yl)piperidine-2,6-dione], the half-maximal degradation concentration (DC50) in assay [1] and in assay [2] was below 100 nM each time. The maximal degradation (Dmax) in assay [1] and in assay [2] was 50 to 75% in each case.
For the compound `Cc1c(CN2CCN(c3ccc4c(c3)C(=O)N([C@H]3CCC(=O)NC3=O)C4)CC2)cnc(O[C@H]2CN3c4cc(-c5cccc(F)c5O)nnc4NC[C@@]3(CF)C2)c1F` [Example 71, (S)-3-(6-(4-((5-fluoro-6-(((6aR,8R)-2-(3-fluoro-2-hydroxyphenyl)-6a-(fluoromethyl)-5,6,6a,7,8,9-hexahydropyrrolo[1′,2′:4,5]pyrazino[2,3-c]pyridazin-8-yl)oxy)-4-methylpyridin-3-yl)methyl)piperazin-1-yl)-1-oxoisoindolin-2-yl)piperidine-2,6-dione], in assay [1], the DC50 was below 100 nM and the maximal degradation (Dmax) is above 75%. In assay [2], this compound showed a 50% degradation concentration (DC50) above 1000 nM and a Dmax below 50%.
The corresponding values for `O=C1CCC(N2Cc3ccc(N4CCN(Cc5cnc(O[C@H]6CN7c8cc(-c9cccc(F)c9O)nnc8NC[C@@]7(CF)C6)c(F)c5)CC4)cc3C2=O)C(=O)N1` (stereo partly drawn) [Example 70, 3-(6-(4-((5-fluoro-6-(((6aR,8R)-2-(3-fluoro-2-hydroxyphenyl)-6a-(fluoromethyl)-5,6,6a,7,8,9-hexahydropyrrolo[1′,2′:4,5]pyrazino[2,3-c]pyridazin-8-yl)oxy)pyridin-3-yl)methyl)piperazin-1-yl)-1-oxoisoindolin-2-yl)piperidine-2,6-dione] are below 100 nM, above 75%, below 100 nM and 50 to 75%.
With `Cc1cc(O[C@@H]2C[C@@H]3CNc4nnc(-c5cc(F)cc(F)c5O)cc4N3C2)c(C)cc1CN1CCN(c2ccc3c(c2)C(=O)N(C2CCC(=O)NC2=O)C3)CC1` (stereo partly drawn) [Example 9, 3-(6-(4-(4-(((6aR,8R)-2-(3,5-difluoro-2-hydroxyphenyl)-5,6,6a,7,8,9-hexahydropyrrolo[1′,2′:4,5]pyrazino[2,3-c]pyridazin-8-yl)oxy)-2,5-dimethylbenzyl)piperazin-1-yl)-1-oxoisoindolin-2-yl)piperidine-2,6-dione], the DC50 in assay [1] and in assay [2] was below 100 nM in each case. The Dmax in assay [1] is above 75%; in assay [2], 50 to 75%.
In assay [1], `Cc1cc(O[C@@H]2C[C@@H]3CNc4nnc(-c5cc(F)cc(F)c5O)cc4N3C2)ncc1CN1CCC(c2ccc3c(c2)C(=O)N([C@H]2CCC(=O)NC2=O)C3)CC1` [Example 29, (S)-3-(6-(1-((6-(((6aR,8R)-2-(3,5-difluoro-2-hydroxyphenyl)-5,6,6a,7,8,9-hexahydropyrrolo[1′,2′:4,5]pyrazino[2,3-c]pyridazin-8-yl)oxy)-4-methylpyridin-3-yl)methyl)piperidin-4-yl)-1-oxoisoindolin-2-yl)piperidine-2,6-dione] displayed a DC50 below 100 nM and a Dmax above 75%. Further, in assay [2], the 50% degradation concentration (DC50) was below 100 nM and the maximal degradation (Dmax) is 50 to 75%.
On to `CC[C@]12CNc3nnc(-c4cccc(F)c4O)cc3N1C[C@H](Oc1cnc(CN3CCC(c4ccc5c(c4)C(=O)N([C@H]4CCC(=O)NC4=O)C5)CC3)c(C)c1)C2` [Example 104, (S)-3-(6-(1-((5-(((6aS,8R)-6a-ethyl-2-(3-fluoro-2-hydroxyphenyl)-5,6,6a,7,8,9-hexahydropyrrolo[1′,2′:4,5]pyrazino[2,3-c]pyridazin-8-yl)oxy)-3-methylpyridin-2-yl)methyl)piperidin-4-yl)-1-oxoisoindolin-2-yl)piperidine-2,6-dione], for which the half-maximal degradation concentration (DC50) in assay [1] and in assay [2] was below 100 nM each time. Moreover, the results for the maximal degradation (Dmax) in assay [1] and in assay [2] were above 75% and 50 to 75%, respectively.
On to `Cc1nc(CN2CCN(c3ccc4c(c3)C(=O)N([C@H]3CCC(=O)NC3=O)C4)CC2)cnc1O[C@H]1CN2c3cc(-c4cccc(F)c4O)nnc3NC[C@@]2(CF)C1` [Example 64, (S)-3-(6-(4-((5-(((6aR,8R)-2-(3-fluoro-2-hydroxyphenyl)-6a-(fluoromethyl)-5,6,6a,7,8,9-hexahydropyrrolo[1′,2′:4,5]pyrazino[2,3-c]pyridazin-8-yl)oxy)-6-methylpyrazin-2-yl)methyl)piperazin-1-yl)-1-oxoisoindolin-2-yl)piperidine-2,6-dione], for which, in assay [1], the DC50 is below 100 nM and the Dmax is above 75%. Also, in assay [2], the half-maximal degradation concentration (DC50) is 100 to 1000 nM and the Dmax was below 50%.
The corresponding values for `O=C1CC[C@H](N2Cc3ccc(C4CCN(Cc5ccc(O[C@H]6CN7c8cc(-c9cccc(F)c9O)nnc8NC[C@@]7(C(F)F)C6)nc5)CC4)cc3C2=O)C(=O)N1` [Example 90, (S)-3-(6-(1-((6-(((6aR,8R)-6a-(difluoromethyl)-2-(3-fluoro-2-hydroxyphenyl)-5,6,6a,7,8,9-hexahydropyrrolo[1′,2′:4,5]pyrazino[2,3-c]pyridazin-8-yl)oxy)pyridin-3-yl)methyl)piperidin-4-yl)-1-oxoisoindolin-2-yl)piperidine-2,6-dione] are below 100 nM, above 75%, above 1000 nM and below 50%.
